Measured values reported in patent US20090035292A1, “Use of phosphatases to treat neuroblastomas and medulloblastomas” (priority 2007, published 2009).
“Also recorded” adds a separate entry of the source. Like-named read-outs stand apart in the source and are kept apart here.

Columns and labels:
[1] = system: medulloblastoma cell line DAOY xenograft tumors; assay: DAOY xenograft tumors in SCID mice; type: in vivo; conditions: 1.5 mg/kg daily intraperitoneally for 21 days, measured at days 7, 14 and 21 of treatment, vs vehicle (FIG. 7)
Protocol: DAOY cells (5 million) were implanted subcutaneously in the flank of SCID mice (Day 0). After the xenografts reached a size of ˜130 cubic mm, treatment was instituted with vehicle alone (control), compound 100 (1.5 mg/kg), or compound 102 (1.5 mg/kg) daily intraperitoneally for 21 days (beginning at day 7). Xenograft masses were measured at days 7, 14 and 21 of treatment.

[2] = system: medulloblastoma cell line, DAOY; assay: Proliferation of medulloblastoma cell line DAOY in vitro; type: cell-based, human
Protocol: FIG. 4. […] The medulloblastoma cell line, DAOY, was exposed to 20 μM Compound 100 (squares), 5 μM Compound 100 (triangles), 1 μM Compound 100 (x's) or vehicle only (diamonds) for 3 days.
FIG. 5. […] The medulloblastoma cell line, DAOY, was exposed to 50 μM ATRA (squares), 20 μM ATRA (triangles), 5 μM ATRA (X's) or vehicle only (diamonds) for 3 days.
FIG. 6. […] The medulloblastoma cell line, DAOY, was exposed to 2 mM valproic acid (squares), 1 mM valproic acid (triangles), 0.5 mM valproic acid (X's) or vehicle only (diamonds) for 3 days.
The human medulloblastoma cell line DAOY is available from the American Type Culture Collection (ATCC), P.O. Box 1549, Manassas, Va., 20108, as ATCC No. HTB-186.
The medulloblastoma cell line, DAOY, was exposed to the cantharidin analog, Compound 100 at concentrations of 1 μM, 5 μM and 20 μM and evaluated for cellular proliferation over the course of three days. […] Therefore, Compound 100 even at low concentration is capable of preventing cellular proliferation.
To confirm these observations, cultured DAOY cells were treated with 50 μM, 20 μM, 5 μM or vehicle only for three days and examined for cellular proliferation. […] Consequently, because it has been determined that proliferation of medulloblastoma cells is inhibited by Compound 100, ATRA and valproic acid as single agent, it is reasonable to expect that the combination of compound 100 with each of these compounds or a regimen of all three agents may be effective in the treatment of medulloblastoma.
The medulloblastoma cell line, DAOY, was exposed to the HDAC inhibitor, Compound 205 at 10 μM, ATRA at 50 μM, and the compound 205 at 10 μM combined with ATRA at 50 μM, and evaluated for cellular proliferation over the course of seven days. […] (FIG. 8) Therefore, we have shown that Compound 205 is active against medulloblastoma cell line DAOY.

[3] = system: neuroblastoma cell line, SH-SY5Y; assay: Proliferation of neuroblastoma cell line SH-SY5Y in vitro; type: cell-based, human
Protocol: FIG. 1. […] The neuroblastoma cell line, SH-SY5Y, was exposed to Compound 100 for 4 or 7 days at concentrations of 1 μM (squares), 5 μM (triangles), 10 μM (short dashed line), 20 μM (diamonds), 50 μM (long dashed line) or vehicle only (circles).
FIG. 2. […] The neuroblastoma cell line, SH-SY5Y, was exposed to 5 μM Compound 100 (squares), 25 μM ATRA (circles), the combination of 5 μM Compound 100 and 25 μM ATRA (dashed line) or vehicle only (black line) for 4 or 7 days. […]
The human neuroblastoma cell line SH-SY5Y is available from the European Collection of Cell Cultures, Health Protection Agency, Porton Down SP40JG Salisbury, Wiltshire UK, as ECACC No. 94030304.
The neuroblastoma cell line, SHSY5Y, was exposed to the cantharidin analog Compound 100 for 4 or 7 days at concentrations of 1, 5, 10, 20 and 50 μM.
Subsequently, SH-SY5Y cells were exposed to Compound 100 at a concentration of 5 μM, ATRA at 25 μM or the combination of the two drugs at the aforementioned doses for 4 or 7 days. […]

[4] = system: neuroblastoma cell line SHSY xenograft; assay: SHSY xenograft in SCID mice; type: in vivo; conditions: measured day 7 and day 14, vs vehicle (FIG. 9)
Protocol: (§1) SHSY cells (5 million) were implanted subcutaneously in the flank of SCID mice. After the xenografts reached a size of ˜100 cubic mm, treatment was instituted with vehicle alone (control), compound 100 (1.5 mg/kg) or compound 205 (10 mg/kg) daily intraperitoneally for 14 days. Xenograft masses were measured day 7 and day 14 of treatment.
as §1, with “Compound” for “compound”

[5] = system: human glioblastoma multiforme; conditions: cited from earlier work
[6] = system: medulloblastoma cell line, DAOY; conditions: cited from earlier work
neuroblastoma = conditions: given for 6 months to high risk patients after chemotherapeutic, surgical and radiation treatments (Matthay et al., 1999); cited from earlier work
[7] = system: neuroblastoma cell line, SH-SY5Y; conditions: cited from earlier work
[8] = compound 205 at 10 μM combined with ATRA at 50 μM, seven days (FIG. 8)

**Q.** With CC(C)(C)OC(=O)N1CCN(C(=O)C2C(C(=O)O)[C@H]3CC[C@@H]2O3)CC1 (stereo partly shown) [Compound 102] as the compound, how does the “proliferation of xenograft (xenograft mass)” value [1] read?
**A.** inhibits the proliferation of the medulloblastoma cell line DAOY xenograft tumors; also recorded: inhibit the proliferation of DAOY cells

**Q.** What does the source list for CN1CCN(C(=O)C2C(C(=O)O)[C@H]3CC[C@@H]2O3)CC1 (stereo partly shown) [Compound 100]?
**A.** proliferation of xenograft (xenograft mass) [1]: inhibits the proliferation of the medulloblastoma cell line DAOY xenograft tumors; also recorded: inhibit the proliferation of DAOY cells; rate of cellular proliferation ([2]; 20 μM Compound 100, three days (FIG. 4, squares)): greatest decrease in cellular proliferation; rate of cellular proliferation ([2]; Compound 100 at 1 μM, 5 μM and 20 μM, three days, vs vehicle (FIG. 4)): inhibits proliferation of medulloblastoma cells; also recorded: decreased rates of cellular proliferation as compared to the control; inhibition of cellular proliferation ([3]; 5 μM Compound 100 alone, 4 or 7 days (FIG. 2)): failed to significantly inhibit cellular proliferation; proliferation inhibition ([3]; 10 μM ATRA and 10 μM Compound 100 (FIG. 3)): exhibited high levels of proliferation inhibition; proliferation ([3]; 10 μM Compound 100 alone (FIG. 3)): proliferation was greatly reduced; synergy in combinations ([3]; 10 μM Compound 100 with 10 μM ATRA, 2.5 mM valproic acid or both (FIG. 3)): synergistically enhanced the activity of ATRA, valproic acid and valproic acid in combination with ATRA; proliferation inhibition ([3]; 2.5 mM valproic acid and 10 μM Compound 100 (FIG. 3)): exhibited high levels of proliferation inhibition; proliferation inhibition ([3]; 2.5 mM valproic acid, 10 μM ATRA and 10 μM Compound 100 (FIG. 3)): severely inhibits proliferation of neuroblastoma cells; also recorded: exhibited high levels of proliferation inhibition; inhibition of cell proliferation ([3]; Compound 100 at 1 μM and 5 μM, day 4, vs vehicle (FIG. 1)): little or no inhibition of cell proliferation; cell growth ([3]; Compound 100 at 1 μM and 5 μM, day 7, vs vehicle (FIG. 1)): enhanced cell growth; inhibition of proliferation ([3]; Compound 100 at 1, 5, 10, 20, 50 μM for 4 or 7 days (FIG. 1 legend)): inhibits proliferation of neuroblastoma cells; growth inhibition ([3]; Compound 100 at doses less than 50 μM, day 7 (FIG. 1)): escape of growth inhibition; cellular proliferation ([3]; Compound 100 at low doses): slightly stimulates cellular proliferation; inhibition of cell proliferation ([3]; Compound 100 at the three higher doses (10, 20, 50 μM), day 4 (FIG. 1)): Dose dependent inhibition; inhibition of cellular proliferation ([3]; combination of 5 μM Compound 100 and 25 μM ATRA, day 4 and day 7 (FIG. 2)): inhibits proliferation of neuroblastoma cells; inhibition of cellular proliferation ([3]; combination of 5 μM Compound 100 and 25 μM ATRA, day 4 and day 7 (FIG. 2), listed as compound 100): potentiated the extent of inhibition by ATRA; proliferation of xenograft (xenograft mass) ([4]; Compound 100 1.5 mg/kg daily intraperitoneally for 14 days, 1.5 mg/kg): inhibits the proliferation of the neuroblastoma cell line SHSY xenograft; inhibition of human cancer cells in vitro ([5]; Compound 100 in combination with trichostatin A (PCT/US2007/003095)): better then would be expected from the combination of the agents alone; inhibition of human cancer cells in vitro ([5]; Compound 100 in combination with valproic acid (PCT/US2007/003095)): better then would be expected from the combination of the agents alone; cellular proliferation ([5]; combination of ATRA with Compound 100, human glioblastoma multiforme (PCT/US2007/003095)): highly effective in preventing cellular proliferation

**Q.** For CCCC(CCC)C(=O)O [valproic acid, reference compound], which cell proliferation ([6]; 0.6 mmol/L valproic acid, 21 days (Li, et al., 2005)) is on record?
**A.** suppressed cell proliferation

**Q.** What about the cell proliferation ([6]; 1 mmol/L valproic acid, 10 days (Li, et al., 2005)) of the same compound?
**A.** suppressed cell proliferation

**Q.** And the inhibition of proliferation ([2]; valproic acid at 2 mM, 1 mM or 0.5 mM, three days (FIG. 6))?
**A.** inhibits proliferation of medulloblastoma cells; also recorded: inhibition of proliferation

**Q.** And the proliferation ([3]; 2.5 mM valproic acid alone (FIG. 3))?
**A.** proliferation was greatly reduced

**Q.** And the inhibition of proliferation ([3]; 2.5 mM valproic acid and 10 μM ATRA (FIG. 3))?
**A.** exhibited inhibition of proliferation

**Q.** For CC1=C(/C=C/C(C)=C/C=C/C(C)=C\C(=O)O)C(C)(C)CCC1 [13-cis-retinoic acid], which survival (neuroblastoma) is on record?
**A.** survival is improved significantly

**Q.** What does the source list for O=C(CCCCCNC(=O)c1ccccc1S)Nc1cccnc1 [Compound 205]?
**A.** rate of cellular proliferation ([2]; Compound 205 at 10 μM alone, seven days, vs vehicle (FIG. 8)): decreased rates of cellular proliferation as compared to the control; also recorded: inhibits proliferation of the medulloblastoma cell line DAOY; rate of cellular proliferation [2, 8]: inhibits proliferation of the medulloblastoma cell line DAOY; synergy in combination [2, 8]: synergistically active; rate of cellular proliferation ([2]; compound 205 at 10 μM combined with ATRA at 50 μM, seven days (FIG. 8), listed as compound 205): marked decrease in the rate of cellular proliferation; proliferation of xenograft (xenograft mass) ([4]; Compound 205 10 mg/kg daily intraperitoneally for 14 days, 10 mg/kg): inhibits the proliferation of the neuroblastoma cell line SHSY xenograft

**Q.** With CC1=C(/C=C/C(C)=C/C=C/C(C)=C/C(=O)O)C(C)(C)CCC1 [ATRA, all-trans retinoic acid, reference compound] as the compound, how does the cellular proliferation ([6]; varying concentration of ATRA (Chang et al., 2007; Gumireddy et al., 2003)) read?
**A.** inhibits cellular proliferation

**Q.** And the “rate of cellular proliferation” value ([2]; ATRA at 50 μM alone, seven days, vs vehicle (FIG. 8))?
**A.** decreased rates of cellular proliferation as compared to the control

**Q.** And the “inhibition of cellular proliferation” value ([2]; ATRA at 50 μM, 20 μM, 5 μM, three days (FIG. 5))?
**A.** inhibits proliferation of medulloblastoma cells; also recorded: inhibited proliferation to varying degrees

**Q.** What about the proliferation ([3]; 10 μM ATRA alone, day 4 (FIG. 3)) of the same compound?
**A.** did not prevent proliferation

**Q.** And the “inhibition of cellular proliferation” value ([3]; 25 μM ATRA alone, 4 or 7 days (FIG. 2))?
**A.** did not impair cellular proliferation until after day 4

**Q.** What about the cellular proliferation ([7]; long-term treatment with ATRA, demonstrated previously) of the same compound?
**A.** can inhibit cellular proliferation

**Q.** And the “cellular migration and invasion” value ([7]; short term treatment (1-3 days) with ATRA (Joshi et al 2006))?
**A.** induced cellular migration and invasion
